According to US20190218588A1, “NOVEL CELL CULTURE METHOD, CELL CULTURE SYSTEM AND USES THEREOF” (priority 2016, published 2019):

System: human hepatocytes cultured in human plasma medium
Type: cell-based

SMILES: COc1cc2c(c3oc(=O)c4c(c13)CCC4=O)[C@@H]1C=CO[C@@H]1O2 [Aflatoxin B1]
- UC50 value after day 10 treatment relative to 2-day treatment (fold lower): 19 ×
- cytotoxicity to human hepatocytes: cytotoxic
